Columns and labels:
pKa value of toremifene = assay type: physicochemical
[1] = background statement; cited from earlier work
[2] = Dissolving toremifene base in aqueous compositions with a solubility enhancing acid; assay type: physicochemical
Description: The compositions of the invention can be prepared e.g. by mixing an amount of a solubility enhancing acid of the invention and purified water, adding thereafter toremifene base or a pharmaceutically acceptable salt thereof and agitating the mixture. pH may be adjusted with a water solution of corresponding acid salt or e.g. sodium hydroxide. The solubility enhancing agent is preferably used in molar excess with respect to toremifene or a pharmaceutically acceptable salt thereof. More preferably, the molar excess is at least about 1.5 fold, and most preferably at least about 2 fold, e.g. from about 2 to about 100 fold, typically from about 2 to about 10 fold.
The experiments also compare the effect of solubility enhancing agents of the invention to other acids such as hydrochloric acid, gluconic acid or citric acid.
Glacial acetic acid and purified water were mixed, toremifene base was added and dissolved. pH of the solution was about 4.
Lactic acid (85% water solution) and purified water were mixed, toremifene base was added and dissolved.
Formic acid and purified water were mixed, toremifene base was added and dissolved.
Toremifene base was dissolved in methanesulfonic acid, then purified water was added.
Lactic acid (85% water solution) and purified water were mixed, toremifene base was added and dissolved. pH was adjusted to about 5 by sodium lactate (50% water solution).
Manufactured as above but pH was adjusted to about 5 with sodium hydroxide.
Hydrochloric acid and purified water were mixed, toremifene base was added. Toremifene was not dissolved.
Sodium gluconate, concentrated hydrochloric acid and purified water were mixed, toremifene base was added. Toremifene was not dissolved.
Toremifene base and 30% water solution of citric acid were mixed together and ethanol was added gradually. Toremifene was not dissolved.

[3] = Water solubility of toremifene and its salts; assay type: physicochemical; conditions: compared with toremifene citrate

Compound	pKa (pKa value of toremifene)	Solubility in water [1]	Dissolution of toremifene base ([2]; Example 1: 18.4% toremifene base, glacial acetic acid 9.0%, purified water 72.6%, pH about 4)	Toremifene base content of the aqueous solution (by weight of the composition) ([2]; Example 1: glacial acetic acid 9.0%, purified water 72.6%, pH of the solution about 4) [%]	Dissolution of toremifene base ([2]; Example 2: 52.6% toremifene base, lactic acid (85%) 24.0%, purified water 23.4%)	Toremifene base content of the aqueous solution (by weight of the composition) ([2]; Example 2: lactic acid (85%) 24.0%, purified water 23.4%) [%]	Dissolution of toremifene base ([2]; Example 3: 8.2% toremifene base, formic acid 1.6%, purified water 90.2%)	Toremifene base content of the aqueous solution (by weight of the composition) ([2]; Example 3: formic acid 1.6%, purified water 90.2%) [%]	Dissolution of toremifene base ([2]; Example 4: 16.7% toremifene base dissolved in methanesulfonic acid 66.6%, then purified water 16.7% added)	Toremifene base content of the aqueous solution (by weight of the composition) ([2]; Example 4: methanesulfonic acid 66.6%, purified water 16.7%) [%]	Dissolution of toremifene base ([2]; Example 5: 3.7% toremifene base, lactic acid (85%) 1.7%, sodium lactate (50%) 4.4%, purified water 90.2%, pH about 5)	Toremifene base content of the aqueous solution (by weight of the composition) ([2]; Example 5: lactic acid (85%) 1.7%, sodium lactate (50%) 4.4%, purified water 90.2%, pH about 5) [%]	Toremifene base content of the aqueous solution (by weight of the composition) ([2]; Example 6: lactic acid (85%) 18.2%, sodium hydroxide 2 N 27.3%, purified water 18.2%, pH about 5) [%]	Dissolution of toremifene base ([2]; Example 7 (reference): 9.1% toremifene base, hydrochloric acid 1 N 31.8%, purified water 59.1%)	Dissolution of toremifene base ([2]; Example 8 (reference): 1.0% toremifene base, sodium gluconate 1.0%, concentrated hydrochloric acid 1.0%, purified water 97.0%)	Dissolution of toremifene base ([2]; Example 9 (reference): 1.0% toremifene base, citric acid (30%) 10.3%, ethanol 88.7%)	Concentration of toremifene base solutions that can be prepared ([2]; two fold molar excess of lactic acid and purified water)	Concentration of toremifene base solutions that can be prepared ([2]; two fold molar excess of lactic acid, pH adjusted to about 5 with sodium hydroxide)	Solubility in distilled water relative to toremifene citrate [3]
CN(C)CCOc1ccc(/C(=C(/CCCl)c2ccccc2)c2ccccc2)cc1 [Toremifene base, toremifene]	8	poorly soluble in water	dissolved	18.4	dissolved	52.6	dissolved	8.2	A clear solution was obtained	16.7	dissolved	3.7	36.3	not dissolved	not dissolved	not dissolved	about 50 w-%	about 36 w-%	
toremifene mesylate																			about 70 times higher

Reference: patent US6491951B1, “Soluble compositions of toremifene” (Orion Corporation, priority 1998, dated 2002)
